For test [1], the system named is primary human mesenchymal stem cells (hMSCs). Description: Induction of chondrogenesis in human mesenchymal stem cells (nodule staining with Rhodamine B / Nile Red). It is filed as cell-based. Conditions: for Emax: TGF-β3 (10 ng/mL) as positive control, read-out: Max. Activity as % TGF-β3 activity; for EC50: concentration required to induce 50% levels of chondrogenesis vs TGF-β3, read-out: Conc (nM) of 50% TGF-β3 activity. On the procedure:
Representative compounds were screened using primary human mesenchymal stem cells (hMSCs) to determine their ability to induce chondrogenesis (process by which cartilage is developed).
Human Mesenchymal Stem Cell Culture: Primary human mesenchymal stem cells (hMSCs) were purchased from Lonza (Walkersville, Md.) and expanded in Mesenchymal Stem Cell Growth Media (Lonza). Cells between passage 3 and 6 were used for the experiments.
Compound Screening: Each compound was dissolved in DMSO as a 10 mM stock and used to prepare compound source plates. For the 96 well assay, serial dilution (1:3, 6-point dose-response curves from 2700 nM to 10 nM) and compound transfer was performed using the ECHO 550 (Labcyte, Sunnyvale, Calif.) into 96-well clear bottom assay plates (Greiner Bio-One) with appropriate DMSO backfill for a final DMSO concentration of 0.03%. hMSCs were plated at 20,000 cells/well in 250 μL/well Incomplete Chondrogenic Induction Medium (Lonza; DMEM, dexamethasone, ascorbate, insulin-transferrin-selenium [ITS supplement], gentamycin-amphotericin [GA-1000], sodium pyruvate, proline and L-glutamine). TGF-β3 (10 ng/mL) was used as a positive control for differentiation while negative control wells were treated with 75 nL DMSO for normalization and calculating EC50 values. For the 384 well assay, serial dilution (1:3, 8-point dose-response curves from 5000 nM to 2.2 nM) and compound transfer was performed using the ECHO 550 (Labcyte, Sunnyvale, Calif.) into 384-well clear bottom assay plates (Greiner Bio-One) with appropriate DMSO backfill for a final DMSO concentration of 0.03%. hMSCs were plated at 8,000 cells/well in 80 μL/well Incomplete Chondrogenic Induction Medium (Lonza; DMEM, dexamethasone, ascorbate, insulin-transferrin-selenium [ITS supplement], gentamycin-amphotericin [GA-1000], sodium pyruvate, proline and L-glutamine). TGF-β3 (10 ng/mL) was used as a positive control for differentiation while negative control wells were treated with 25 nL DMSO for normalization and calculating EC50 values. Cells were incubated at 37° C. and 5% CO2 for 6 days. To image chondrogenic nodules, the cells were fixed using 4% formaldehyde (Electron Microscopy Sciences), and stained with 2 μg/mL Rhodamine B (Sigma-Aldrich) and 20 μM Nile Red (Sigma-Aldrich) [Johnson K., et. al, A Stem Cell-Based Approach to Cartilage Repair, Science, (2012), 336(6082), 717-721]. The nodules imaged (25 images per well for 96 well plates and 9 images per well for 384 well plates at 10× magnification) by excitation at 531 nm and emission at 625 nm and quantified using the CellInsight CX5 (Thermo Scientific). Area of nodules in each well was normalized to the average of 3 DMSO treated wells on the same plate using Excel (Microsoft Inc.). The normalized averages (fold change over DMSO) of 2 or 3 replicate wells for each compound concentration were calculated. Due to solubility limitations of some of the compounds, curve fitting was incomplete leading to inaccurate EC50 determinations.
Using TGF-β3 as a positive control, the concentration of representative compounds required to induce 50% levels of chondrogenesis is reported. In addition, the maximum activity of each compound and the respective dose that each compound reached maximum chondrogenesis activity is reported.

Test [2] relates to IL-6 (THP-1 cells). Description: IL-6 inhibition in LPS-stimulated THP-1 monocytes (HTRF). It is filed as cell-based. As to conditions: Homo sapiens, IL-6 HTRF; for EC50: 500 ng/mL LPS, Table 6; for inhibition at 10 µM: LPS, Table 6, read-out: percent inhibition at 10 μM (given in parentheses for EC50 >10 μM). The gist of the method:
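THP-1 cells in 1% FBS pre-incubated 2 h with compound (10-point 1:3 series from 10 μM, 0.1% DMSO), then stimulated with 500 ng/mL LPS for 22 h at 37 °C. IL-6 measured by HTRF 665/620 ratio, normalized to DMSO; EC50 by four-parameter fit, or % inhibition at 10 μM when EC50 >10 μM.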

For the molecule `O=C(Nc1cncc(-c2ccc3[nH]nc(-c4nc5c(-c6ccccc6F)cccc5[nH]4)c3n2)c1)C(F)(F)F` [Compound 1126, 2,2,2-Trifluoro-N-(5-(3-(4-(2-fluorophenyl)-1H-benzo[d]imidazol-2-yl)-1H-pyrazolo[4,3-b]pyridin-5-yl)pyridin-3-yl)acetamide], in test [1], the Emax amounted to 40%. For the same molecule, the EC50 in test [2] is 0.0518 µM.
For `CCCC(=O)Nc1cncc(-c2ccc3[nH]nc(-c4nc5c(-c6ccncc6)cccc5[nH]4)c3n2)c1` [Compound 129, N-(5-(3-(4-(Pyridin-4-yl)-1H-benzo[d]imidazol-2-yl)-1H-pyrazolo[4,3-b]pyridin-5-yl)pyridin-3-yl)butyramide], in test [1], the Emax is 59% and the EC50 was determined as 2700 nM. In test [2], the EC50 is greater than 10 µM and the inhibition (commonly the share of the control response that was lost under treatment) at 10 µM stood at 34.9%.
With `CN(C)CCOc1cncc(-c2ccc3[nH]nc(-c4nc5c(-c6cccs6)cccc5[nH]4)c3n2)c1` [Compound 707, N,N-Dimethyl-2-((5-(3-(4-(thiophen-2-yl)-1H-benzo[d]imidazol-2-yl)-1H-pyrazolo[4,3-b]pyridin-5-yl)pyridin-3-yl)oxy)ethan-1-amine], in test [1], the Emax was 142% and the EC50 came to 10 nM. The EC50 in test [2] stood at 5.89 µM.
With `Cc1ccncc1-c1ccc2[nH]nc(-c3nc4c(-c5ccncc5)cccc4[nH]3)c2n1` [Compound 117, 5-(4-Methylpyridin-3-yl)-3-(4-(pyridin-4-yl)-1H-benzo[d]imidazol-2-yl)-1H-pyrazolo[4,3-b]pyridine], in test [1], the Emax was 45%. In addition, in test [2], the EC50 is greater than 10 µM and the inhibition at 10 µM was 51.4%.
`CN1CCN(c2cccc3[nH]c(-c4n[nH]c5ccc(-c6cncc(N)c6)nc45)nc23)CC1` [Compound 227, 5-(3-(4-(4-Methylpiperazin-1-yl)-1H-benzo[d]imidazol-2-yl)-1H-pyrazolo [4,3-b]pyridin-5-yl)pyridin-3-amine]: the Emax in test [1] was 50%. In test [2], this molecule gave an EC50 of 8.32 µM.
Take `CN(C)CC(=O)Nc1cncc(-c2ccc3[nH]nc(-c4nc5c(-c6cccc(F)c6)cccc5[nH]4)c3n2)c1` [Compound 969, 2-(Dimethylamino)-N-(5-(3-(4-(3-fluorophenyl)-1H-benzo[d]imidazol-2-yl)-1H-pyrazolo[4,3-b]pyridin-5-yl)pyridin-3-yl)acetamide]: in test [1], the Emax was 44%. Besides, in test [2], the EC50 is greater than 10 µM and the inhibition at 10 µM was 39%.
For `CCC(=O)Nc1cncc(-c2ccc3[nH]nc(-c4nc5c(N6CCCCC6)cccc5[nH]4)c3n2)c1` [Compound 169, N-(5-(3-(4-(Piperidin-1-yl)-1H-benzo[d]imidazol-2-yl)-1H-pyrazolo[4,3-b]pyridin-5-yl)pyridin-3-yl)propionamide], in test [1], the Emax worked out at 66% and the EC50 came out at 1670 nM. In test [2], this molecule came in with an EC50 of 0.161 µM.
Regarding `CC(C)(C)C(=O)Nc1cncc(-c2ccc3[nH]nc(-c4nc5c(-c6ccc(F)cc6)cccc5[nH]4)c3n2)c1` [Compound 36, N-(5-(3-(4-(4-Fluorophenyl)-1H-benzo[d]imidazol-2-yl)-1H-pyrazolo[4,3-b]pyridin-5-yl)pyridin-3-yl)pivalamide], in test [1], the Emax was found to be 86% and the EC50 amounted to 30 nM. In test [2], the EC50 is greater than 10 µM and the inhibition at 10 µM came out at 25.7%.
For `CC(C)C(=O)Nc1cncc(-c2ccc3[nH]nc(-c4nc5c(N6CCN(C)CC6)cccc5[nH]4)c3n2)c1` [Compound 233, N-(5-(3-(4-(4-Methylpiperazin-1-yl)-1H-benzo[d]imidazol-2-yl)-1H-pyrazolo[4,3-b]pyridin-5-yl)pyridin-3-yl)isobutyramide] the same measures were 52%, 30 nM, greater than 10 µM and 42.9%.
On to `CN(C)Cc1cncc(-c2ccc3[nH]nc(-c4nc5c(N6CCCCC6)cccc5[nH]4)c3n2)c1` [Compound 181, N,N-dimethyl-1-(5-(3-(4-(piperidin-1-yl)-1H-benzo[d]imidazol-2-yl)-1H-pyrazolo[4,3-b]pyridin-5-yl)pyridin-3-yl)methanamine], for which, in test [1], the Emax was 52% and the EC50 is 10 nM. Besides, the EC50 in test [2] is 4.94 µM.
Turning to `CC(C)Nc1cncc(-c2ccc3[nH]nc(-c4nc5c(-c6cccnc6)cccc5[nH]4)c3n2)c1` [Compound 96, N-Isopropyl-5-(3-(4-(pyridin-3-yl)-1H-benzo[d]imidazol-2-yl)-1H-pyrazolo [4,3-b]pyridin-5-yl)pyridin-3-amine], in test [1], the Emax is 24%. The EC50 in test [2] was 1.74 µM.
In the case of `O=C(Nc1cncc(-c2ccc3[nH]nc(-c4nc5c(-c6ccc(Cl)s6)cccc5[nH]4)c3n2)c1)C1CCC1` [Compound 1056, N-(5-(3-(4-(5-Chlorothiophen-2-yl)-1H-benzo[d]imidazol-2-yl)-1H-pyrazolo [4,3-b]pyridin-5-yl)pyridin-3-yl)cyclobutanecarboxamide], in test [1], the Emax is 100% and the EC50 came out at 10 nM. In test [2], the EC50 was greater than 10 µM and the inhibition at 10 µM was determined as 47.8%.
With `CC(C)(C)C(=O)Nc1cncc(-c2ccc3[nH]nc(-c4nc5c(-c6ccc(Cl)s6)cccc5[nH]4)c3n2)c1` [Compound 1043, N-(5-(3-(4-(5-chlorothiophen-2-yl)-1H-benzo[d]imidazol-2-yl)-1H-pyrazolo[4,3-b]pyridin-5-yl)pyridin-3-yl)pivalamide], in test [1], the Emax was determined as 65% and the EC50 amounted to 10 nM. In test [2], the EC50 is greater than 10 µM and the inhibition at 10 µM amounted to 16.9%.
As for `Nc1cncc(-c2ccc3[nH]nc(-c4nc5c(-c6ccccc6F)cccc5[nH]4)c3n2)c1` [Compound 59, 5-(3-(4-(2-Fluorophenyl)-1H-benzo[d]imidazol-2-yl)-1H-pyrazolo[4,3-b]pyridin-5-yl)pyridin-3-amine], the Emax in test [1] turned out to be 82%. Moreover, the EC50 in test [1] came out at 30 nM; in test [2], 0.487 µM.
With `O=C(Cc1ccccc1)Nc1cncc(-c2ccc3[nH]nc(-c4nc5ccccc5[nH]4)c3n2)c1` [Compound 262, N-(5-(3-(1H-Benzo[d]imidazol-2-yl)-1H-pyrazolo[4,3-b]pyridin-5-yl)pyridin-3-yl)-2-phenylacetamide], the Emax in test [1] is 37%. The EC50 in test [2] turned out to be 1.09 µM.
Regarding `CC(C)CC(=O)Nc1cncc(-c2ccc3[nH]nc(-c4nc5c(-c6ccc(Cl)s6)cccc5[nH]4)c3n2)c1` [Compound 1037, N-(5-(3-(4-(5-Chlorothiophen-2-yl)-1H-benzo[d]imidazol-2-yl)-1H-pyrazolo [4,3-b]pyridin-5-yl)pyridin-3-yl)-3-methylbutanamide], in test [1], the Emax is 56% and the EC50 came to 10 nM. In test [2], the EC50 is greater than 10 µM and the inhibition at 10 µM is 19.5%.
For `c1cncc(-c2ccc3[nH]nc(-c4nc5c(-c6cccnc6)cccc5[nH]4)c3n2)c1` [Compound 88, 5-(Pyridin-3-yl)-3-(4-(pyridin-3-yl)-1H-benzo[d]imidazol-2-yl)-1H-pyrazolo [4,3-b]pyridine] the same measures were 58%, 30 nM, greater than 10 µM and 31.8%.

The record behind these values is patent US10392383B2, “3-(1H-benzo[d]imidazol-2-yl)-1H-pyrazolo[4,3-b]pyridines and therapeutic uses thereof” (Samumed, LLC, priority 2015, dated 2019).
